Source: patent US5231091A, “Bis-arylphosphate ester antagonists of platelet activating factor” (priority 1992, dated 1993)
Counter-ions that a name gives are not always drawn.

What was measured:
LPS induced gut leakage = assay: Endotoxin induced hemorragic lesions / LPS induced gut leakage in rats; assay type: in vivo, rat (male Wistar); conditions: for % of control leakage (K), IV LPS induced gut leakage: ± SEM; for protection against LPS induced gut damage: IV LPS
Excerpt: One of the main sites of LPS induced pathology in the rat and guinea pig is the gut, particularly the duodenum, small intestine and cecum. After LPS exposure hemorragic lesions develop within a few minutes and can involve most of the lumenal surface. The extent of these pathologies can be quantitated histologically or by measuring the amount of plasma proteins that have leaked into the lumen. The second method is much faster and can detect damage in the junctions between capillary or intestinal epithelial cells before gross lesions have developed. Hot tags have shown plasma leakage after LPS challenge using radiolabeled albumin as the probe. In our assay we have chosen to use a non-radioactive tagging method in which plasma albumin is labeled with Evan's blue dye and the lumenal leakage is determined spectrophotometricly.
Evan's blue dye: Sigma e-2129, made as a 1% w/v solution in saline which was filtered and kept refrigerated.
For each experiment fresh 3-[[3-[[hydroxy[2-methoxy-3-(tetradecyloxy)phenoxy]phosphinyl]oxy]phenyl]- methyl]-5-methyl-thiazolium, hydroxide, inner salt was sonicated into saline.
LPS solutions were made fresh for each experiment.
Male Wistar rats, obtained from Charles River, weighing 160-225 gm were maintained in accordance with ALAC standards for at least one week before use.
Food was withheld from the animals for 18 hours before the experiment to clear the intestine. The rats were dosed with 3-[[3-[[hydroxy[2-methoxy-3-(tetradecyloxy)phenoxy]phosphinyl]oxy]phenyl]methyl]-5-methyl-thiazolium, hydroxide, inner salt or saline ip, 4 ml/kg, 1/2 hour before challenge with 25 or 50 mg/kg LPS in the 1% dye at 10 ml/kg. One hour after the LPS insult the animals were sacrificed and the duodenum and initial 6-7 cm of the jejunum isolated. This segment was lavaged with 2 ml of normal saline with the fluid flowing into polyethylene tubes. The lavageate frequently contained mucous and in order to free the stained albumin the samples were sonicated vigorously and then centrifuged to clarify the fluid. The amount of dye was determined spectrophotometrically, using a Vmax microtiter plate reader using the end point mode at […].

PAF induced lethality = PAF induced lethality in mice; assay type: in vivo; conditions: I.P. 10 mg/kg; corrected for control lethality
Description: PAF given I.V. to mice causes an immediate hypotensive shock leading to death in 1 hour or less. Compounds were given intraperitoneally or P.O. at various times before the PAF challenge. Animals alive after 2 hours were counted and the activity of test compounds expressed as % survival corrected for any control (saline treated) animals which survived the PAF challenge.

[1] = test system: endotoxin induced mortality; assay: Endotoxin induced shock and mortality in mice; assay type: in vivo, mouse (male Balb/c)
Excerpt: The test compounds (PAF antagonists) were also efficacious when administered iv prior to a lethal iv injection of endotoxin (Table IX).

CCCCCCCCCCCCCCOc1cccc(OP(=O)([O-])Oc2cccc(C[n+]3csc(C)c3)c2)c1OC [3-[[3-[[Hydroxy[2-methoxy-3-(tetradecyloxy)phenoxy]-phosphinyl]oxy]phenyl]methyl]-5-methyl-thiazolium, hydroxide, inner salt]
% of control leakage (K), IV LPS induced gut leakage (LPS induced gut leakage; 0.125 mg/kg IP, Experiment 1): 24 ± 15% | % of control leakage (K), IV LPS induced gut leakage (LPS induced gut leakage; 0.125 mg/kg IP, Experiment 2): 107 ± 27% | % of control leakage (K), IV LPS induced gut leakage (LPS induced gut leakage; 0.25 mg/kg IP, Experiment 1): 36 ± 23% | % of control leakage (K), IV LPS induced gut leakage (LPS induced gut leakage; 0.25 mg/kg IP, Experiment 2): 65 ± 15% | % of control leakage (K), IV LPS induced gut leakage (LPS induced gut leakage; 0.5 mg/kg IP, Experiment 1): 15 ± 10% | % of control leakage (K), IV LPS induced gut leakage (LPS induced gut leakage; 0.5 mg/kg IP, Experiment 2): 16 ± 9% | % of control leakage (K), IV LPS induced gut leakage (LPS induced gut leakage; 1 mg/kg IP, Experiment 1): 22 ± 15% | % of control leakage (K), IV LPS induced gut leakage (LPS induced gut leakage; 2 mg/kg IP, Experiment 1): 10 ± 10% | % of control leakage (K), IV LPS induced gut leakage (LPS induced gut leakage; 2 mg/kg IP, Experiment 2): 18 ± 24% | % of control leakage (K), IV LPS induced gut leakage (LPS induced gut leakage; 2 mg/kg IP, Experiment 3): 27 ± 11% | % of control leakage (K), IV LPS induced gut leakage (LPS induced gut leakage; 20 mg/kg IP, Experiment 1): 20 ± 2% | % of control leakage (K), IV LPS induced gut leakage (LPS induced gut leakage; 20 mg/kg IP, Experiment 2): 19 ± 31% | activity seen at doses as low as (LPS induced gut leakage; IP): 1/2 | doses as low as (able to reduce or eliminate damage produced by IV LPS) (LPS induced gut leakage; IP one hour before challenge): 1/2 | protection against LPS induced gut damage (LPS induced gut leakage; IP): able to reduce or eliminate the damage produced by IV LPS | protection against LPS induced gut damage (LPS induced gut leakage; IP, listed as 3-[[3-[[hydroxy[2-methoxy-3-(tetradecyloxy)phenoxy]-phosphinyl]oxy]phenyl]-methy): very potent protection against the end point of gut pathophysiology | direct observation of the intestinal tract of LPS challenged protected animals (LPS induced gut leakage; LPS challenge): nearly normal appearing guts | minimal effective dose (LPS induced gut leakage; Rattus norvegicus, ip, read-out: doses as low as (prevents the gut manifestations of endotoxin shock), rats): 0.25 mg/kg | diarrhea in LPS challenged treated animals (LPS induced gut leakage; virtually all control animals had severe diarrhea): little or none | PAF induced lethality, % protection (PAF induced lethality): 17% | 24 hour survival, treated ([1]; 40 mg/kg IP 2 hours prior to IP endotoxin): 13/50 | Survival after 24 hrs., treated ([1]; Table IX, 20 mg/kg iv prior to iv endotoxin, footnote prints IP, control 3/40): 14/40
